Test results from US5004758A, “Water soluble camptothecin analogs useful for inhibiting the growth of animal tumor cells” (priority 1988, dated 1991).
Where a name gives a salt, the structure may show the parent alone. Read-outs that look alike come from different tables or passages of the source.

Key:
ip P388 leukemia = conditions: ip
Description: (§1) Increase in lifespan (ILS) is based on median survival time of groups of 6 mice. Net tumor cell kill (NCK) is calculated from median survival time by standard methods, since survival time is a linear function of the log tumor cell burden.
Animals were implanted ip with 10^6 cells. Increase in lifespan (ILS) is based on median survival time of groups of 6 mice relative to untreated controls. Long-term survivors were tumor-free on Day 45.
Tumors used in these studies--P388 leukemia and its doxorbicin--and mitoxanrone-resistant sublines, L1210 leukemia, B16 melanoma, B16 melanoma/F10 subline, M5076 sarcoma and colon carcinoma 26--are maintained by serial transplantation in syngeneic strains of mice. For the leukemias, these tumors are maintained in DBA/2 mice. The M5076 sarcoma, the B16 melanoma and its F10 subline are maintained in C57B1/6 mice and the colon sarcinoma 26 is maintained in BALB/c mice. The leukemias and the M5076 sarcoma are serially transplanted i.p. as ascites cell suspensions while the B16 melanoma lines and the colon carcinoma 26 are serially transplanted as s.c. solid tumors.
For therapeutic trials, tumors are aseptically removed from donor mice and prepared as suspensions for implantation ip into test animals. The test animals for the colon carcinoma 26 are female BALB/c mice (20-25 gm). The test animals for the other tumor models are syngeneic female F1 hybrid B6D2F1 mice (C57B1/6 x DBA/2). The inoculum level varies with the type of tumor: P388 leukemia is inoculated at 10^6 cells per mouse, L1210 leukemia at 10^5 or 10^6 cells per mouse, M5076 sarcoma at 5×10^6 cells per mouse. For implantation of the B16 melanoma lines and the colon carcinoma 26, s.c. tumors from donor mice are minced and homogenized in loose fitting teflon glass homogenizer to give a tumor brei. The inoculum levels are 0.5 ml of a 10 percent (w:v) brei of the B16 melanoma lines and 0.5 ml of a 5 percent (w:v) brei of colon carcinoma 26. After tumor inoculation, mice randomized to treatment groups comprised of 6-8 mice each. In each experiment, there are three groups of untreated control mice. Drugs are dissolved or suspended in appropriate aqueous vehicles and given by a variety of routes and schedules of administration over a range of dose levels. Animals are housed in shoebox cages and are monitored daily for mortality for 30 (L1210), 45 (P388) or 60 (B16, M5076, colon 26) days.

P388/Doxorubicin = assay: ip P388/Doxorubicin multidrug resistant subline in mice; conditions: for ILS / NCK (net tumor cell kill): P388/Doxorubicin, ip, Days 1 and 5; for sensitivity / resistance of subline: P388/doxorubicin in mice
Description: as §1
(§2) For the leukemias, these tumors are maintained in DBA/2 mice. […] The leukemias and the M5076 sarcoma are serially transplanted i.p. as ascites cell suspensions while the B16 melanoma lines and the colon carcinoma 26 are serially transplanted as s.c. solid tumors.
(§3) For therapeutic trials, tumors are aseptically removed from donor mice and prepared as suspensions for implantation ip into test animals. […] The test animals for the other tumor models are syngeneic female F1 hybrid B6D2F1 mice (C57B1/6 x DBA/2). The inoculum level varies with the type of tumor: P388 leukemia is inoculated at 10^6 cells per mouse, L1210 leukemia at 10^5 or 10^6 cells per mouse, M5076 sarcoma at 5×10^6 cells per mouse. […] After tumor inoculation, mice randomized to treatment groups comprised of 6-8 mice each. In each experiment, there are three groups of untreated control mice. Drugs are dissolved or suspended in appropriate aqueous vehicles and given by a variety of routes and schedules of administration over a range of dose levels. Animals are housed in shoebox cages and are monitored daily for mortality for 30 (L1210), 45 (P388) or 60 (B16, M5076, colon 26) days.

P388/Mitoxantrone = assay: ip P388/Mitoxantrone multidrug resistant subline in mice; conditions: for ILS / NCK (net tumor cell kill): P388/Mitoxantrone, ip, Days 1 and 5
Description: as §1, §2, §3

L1210 leukemia cells = assay: cells; assay type: cell-based, mouse; conditions: Mus musculus, L1210, read-out: In Vitro Activity IC50
Description: Cells were exposed continuously upon cloning into medium containing 0.2 percent Noble agar. After incubation at 37° C. in a CO2 incubator for 3 days, colonies were stained with viable cell specific formazan stain and, 24 hours later, were enumerated by a colony counter (Biotran II, New Brunswick Scientific Co., Edison, N.J.) adjusted to identify colonies of more than 50 cells. The concentration which reduced cloning efficiency by 50 percent IC50) was determined by interpolation.

[1] = ip-implanted L1210 leukemia in mice; conditions: mouse, in vivo, ip;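 further: each mouse received 10^6 L1210 cells intraperitoneally, with drug treatment also given by the i.p. route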
Description: (§4) For in vivo studies L1210 cells were implanted i.p. (10^6 per mouse)
(§5) and drugs were administered i.p. on Days 1 and 5. Increase in lifespan
(§6) (ILS) was based on median survival time of groups of 6 mice treated at th
maximally tolerated dose of the drugs.

ip L1210 leukemia = assay: ip-implanted L1210 leukemia in mice;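 further: each mouse received 10^6 L1210 cells intraperitoneally, with drug treatment also given by the i.p. route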; conditions: ip L1210 (10^6 cells); drug i.p. Days 1 and 5 at maximally tolerated dose
Description: as §4, §5, §6
maximally tolerated dose of the drugs.

iv L1210 leukemia = conditions: iv L1210 (10^6 cells)
Description: Animals were inoculated iv with 10^6 cells. Increase in lifespan (ILS) is based on median survival time of groups of 6 mice relative to untreated controls.
The protocols utilized for the evaluation of the antitumor activity of Formula (I) compounds are well established and widely utilized by those skilled in the art of assessing the activity of drugs in preclinical tumor models. These studies generally follow the protocols established by the National Cancer Institute as described by Geran et al., Cancer Chemotherapy Reports, Part 3, Vol. 3, 1-103, 1972.
Tumors used in these studies P388 leukemia, L1210 leukemia and Lewis lung carcinoma--are maintained by serial transplantation in syngeneic strains of mice, DBA/2 for the leukemias and C57B1/6 for Lewis lung carcinoma. The leukemias are serially transplanted i.p. as ascites cell suspensions while the Lewis lung carcinoma is serially transplanted as a s.c. solid tumor.
For therapeutic trials, tumors were aseptically removed from donor mice and prepared as suspensions for implantation into test animals which for each tumor are syngeneic female F1 hybrid B6D2F1 mice (C57B1/6×DBA/2). The inoculum level varies with the type of tumor: P388 leukemia is inoculated at 10^6 cells per mouse, L1210 leukemia at 10^5 or 10^6 cells per mouse, and Lewis lung carcinoma at 0.25 ml of a 10 percent (w:v) brei. […] After tumor inoculation, mice are randomized to treatment groups of 6 to 8 mice each. In each experiment, there are three groups of untreated control mice.
Drugs are dissolved or suspended in appropriate aqueous vehicles and given i.p. or i.v. on various treatment schedules over a range of dosage levels. Animals are housed in shoebox cages and monitored daily for mortality for 30 (L1210), 45 (P388) or 60 (Lewis lung) days.

[2] = ip P388 (10^6 cells), 29 mg/kg, Days 1 & 5

CCC1(O)C(=O)OCc2c1cc1n(c2=O)Cc2cc3c(CN(C)C)c(O)ccc3nc2-1 (racemic) [Compound No. 1RS, (20 R,S)-9-Dimethylaminomethyl-10-hydroxycamptothecin Acetate Salt]
ILS (ip P388 leukemia; ip P388 (10^6 cells), 3.6 mg/kg, Days 1 & 5): 30% | ILS (ip P388 leukemia; ip P388 (10^6 cells), 7.2 mg/kg, Days 1 & 5): 80% | ILS (ip P388 leukemia; ip P388 (10^6 cells), 14 mg/kg, Days 1 & 5): 135% | ILS (ip P388 leukemia; [2]): 165% | Long-term Survivors (tumor-free on Day 45) (ip P388 leukemia; [2]): 1/6

CO[C@@]12[C@H](COC(N)=O)C3=C(C(=O)C(C)=C(N)C3=O)N1C[C@@H]1N[C@@H]12 [Mitomycin C]
ILS (ip P388 leukemia; P388, 1.0 mg/kg, Days 1 and 5): 83% | NCK (net tumor cell kill) (ip P388 leukemia; P388, 1.0 mg/kg, Days 1 and 5): 1.7 log | ILS (ip P388 leukemia; P388, 1.6 mg/kg, Days 1 and 5): 106% | NCK (net tumor cell kill) (ip P388 leukemia; P388, 1.6 mg/kg, Days 1 and 5): 2.6 log | ILS (ip P388 leukemia; P388, 2.7 mg/kg, Days 1 and 5): 128% | NCK (net tumor cell kill) (ip P388 leukemia; P388, 2.7 mg/kg, Days 1 and 5): 3.5 log | ILS (ip P388 leukemia; P388, 4.5 mg/kg, Days 1 and 5): 156% | NCK (net tumor cell kill) (ip P388 leukemia; P388, 4.5 mg/kg, Days 1 and 5): 4.6 log | ILS (ip P388 leukemia; P388, 7.5 mg/kg, Days 1 and 5): 178% | NCK (net tumor cell kill) (ip P388 leukemia; P388, 7.5 mg/kg, Days 1 and 5): 5.5 log | ILS (P388/Doxorubicin; 1.0 mg/kg): 29% | NCK (net tumor cell kill) (P388/Doxorubicin; 1.0 mg/kg): 0 log | ILS (P388/Doxorubicin; 1.6 mg/kg): 48% | NCK (net tumor cell kill) (P388/Doxorubicin; 1.6 mg/kg): 0.3 log | ILS (P388/Doxorubicin; 2.7 mg/kg): 52% | NCK (net tumor cell kill) (P388/Doxorubicin; 2.7 mg/kg): 0.5 log | ILS (P388/Doxorubicin; 4.5 mg/kg): 62% | NCK (net tumor cell kill) (P388/Doxorubicin; 4.5 mg/kg): 1.0 log | ILS (P388/Doxorubicin; 7.5 mg/kg): 52% | NCK (net tumor cell kill) (P388/Doxorubicin; 7.5 mg/kg): 0.5 log | sensitivity / resistance of subline (P388/Doxorubicin): resistant | ILS (P388/Mitoxantrone; 1.0 mg/kg): 14% | NCK (net tumor cell kill) (P388/Mitoxantrone; 1.0 mg/kg): 0 log | ILS (P388/Mitoxantrone; 1.6 mg/kg): 29% | NCK (net tumor cell kill) (P388/Mitoxantrone; 1.6 mg/kg): 0 log | ILS (P388/Mitoxantrone; 2.7 mg/kg): 54% | NCK (net tumor cell kill) (P388/Mitoxantrone; 2.7 mg/kg): 1.8 log | ILS (P388/Mitoxantrone; 4.5 mg/kg): 136% | NCK (net tumor cell kill) (P388/Mitoxantrone; 4.5 mg/kg): 6.5 log | ILS (P388/Mitoxantrone; 7.5 mg/kg): 104% | NCK (net tumor cell kill) (P388/Mitoxantrone; 7.5 mg/kg): 5.5 log

COc1cccc2c1C(=O)c1c(O)c3c(c(O)c1C2=O)C[C@@](O)(C(=O)CO)C[C@@H]3O[C@H]1C[C@H](N)[C@H](O)[C@H](C)O1 [Doxorubicin]
ILS (ip P388 leukemia; P388, 1.2 mg/kg, Days 1 and 5): 117% | NCK (net tumor cell kill) (ip P388 leukemia; P388, 1.2 mg/kg, Days 1 and 5): 3.0 log | ILS (ip P388 leukemia; P388, 1.9 mg/kg, Days 1 and 5): 167% | NCK (net tumor cell kill) (ip P388 leukemia; P388, 1.9 mg/kg, Days 1 and 5): 5.1 log | ILS (ip P388 leukemia; P388, 3.2 mg/kg, Days 1 and 5): 172% | NCK (net tumor cell kill) (ip P388 leukemia; P388, 3.2 mg/kg, Days 1 and 5): 5.3 log | ILS (ip P388 leukemia; P388, 5.4 mg/kg, Days 1 and 5): 156% | NCK (net tumor cell kill) (ip P388 leukemia; P388, 5.4 mg/kg, Days 1 and 5): 4.6 log | ILS (ip P388 leukemia; P388, 9 mg/kg, Days 1 and 5): 233% | NCK (net tumor cell kill) (ip P388 leukemia; P388, 9 mg/kg, Days 1 and 5): 6.5 log | ILS (P388/Doxorubicin; 1.2 mg/kg): 19% | NCK (net tumor cell kill) (P388/Doxorubicin; 1.2 mg/kg): 0 log | ILS (P388/Doxorubicin; 1.9 mg/kg): 24% | NCK (net tumor cell kill) (P388/Doxorubicin; 1.9 mg/kg): 0 log | ILS (P388/Doxorubicin; 3.2 mg/kg): 24% | NCK (net tumor cell kill) (P388/Doxorubicin; 3.2 mg/kg): 0 log | ILS (P388/Doxorubicin; 5.4 mg/kg): 19% | NCK (net tumor cell kill) (P388/Doxorubicin; 5.4 mg/kg): 0 log | ILS (P388/Doxorubicin; 9 mg/kg): 14% | NCK (net tumor cell kill) (P388/Doxorubicin; 9 mg/kg): 0 log | sensitivity / resistance of subline (P388/Doxorubicin): expected resistance | ILS (P388/Mitoxantrone; 1.2 mg/kg): 0% | NCK (net tumor cell kill) (P388/Mitoxantrone; 1.2 mg/kg): 0 log | ILS (P388/Mitoxantrone; 1.9 mg/kg): 0% | NCK (net tumor cell kill) (P388/Mitoxantrone; 1.9 mg/kg): 0 log | ILS (P388/Mitoxantrone; 3.2 mg/kg): 0% | NCK (net tumor cell kill) (P388/Mitoxantrone; 3.2 mg/kg): 0 log | ILS (P388/Mitoxantrone; 5.4 mg/kg): 4% | NCK (net tumor cell kill) (P388/Mitoxantrone; 5.4 mg/kg): 0 log | ILS (P388/Mitoxantrone; 9 mg/kg): 7% | NCK (net tumor cell kill) (P388/Mitoxantrone; 9 mg/kg): 0 log | sensitivity / resistance of subline (P388/Mitoxantrone; P388/mitoxantrone in mice): expected resistance

CC[C@@]1(O)C(=O)OCc2c1cc1n(c2=O)Cc2cc3c(CN4CCOCC4)cccc3nc2-1 [18S, (20S) 9-Morpholinomethylcamptothecin]
IC50 (L1210 leukemia cells): 690 nM | MTD [1]: 13 mg/kg | In Vivo Antitumor Activity ILS (increase in lifespan) (ip L1210 leukemia): 144%

CC[C@@]1(O)C(=O)OCc2c1cc1n(c2=O)Cc2cc3c(CN(C)c4ccccc4)c(O)ccc3nc2-1 [9S]
IC50 (L1210 leukemia cells): 69 nM | MTD [1]: 42 mg/kg | In Vivo Antitumor Activity ILS (increase in lifespan) (ip L1210 leukemia): 112%

CC[C@@]1(O)C(=O)OCc2c1cc1n(c2=O)Cc2cc3c(CNC4CCCCC4)c(O)ccc3nc2-1 [11S]
IC50 (L1210 leukemia cells): 56 nM | MTD [1]: 25 mg/kg | In Vivo Antitumor Activity ILS (increase in lifespan) (ip L1210 leukemia): > 200%

CC[C@@]1(O)C(=O)OCc2c1cc1n(c2=O)Cc2cc3c(CN(C)C)cccc3nc2-1 [15S, (20S) 9-Dimethylaminomethylcamptothecin]
IC50 (L1210 leukemia cells): 65 nM | MTD [1]: 15 mg/kg | In Vivo Antitumor Activity ILS (increase in lifespan) (ip L1210 leukemia): 88%

CC[C@@]1(O)C(=O)OCc2c1cc1n(c2=O)Cc2cc3cc(CN)ccc3nc2-1 [20S, (20S) 10-Aminomethylcamptothecin Acetate salt]
IC50 (L1210 leukemia cells): 90 nM | MTD [1]: 92 mg/kg | In Vivo Antitumor Activity ILS (increase in lifespan) (ip L1210 leukemia): 112%

CC[C@@]1(O)C(=O)OCc2c1cc1n(c2=O)Cc2cc3c(CN(C)C)c(O)ccc3nc2-1 [1S (dihydrochloride salt)]
ILS (iv L1210 leukemia; 5.4 mg/kg, Days 1 & 5, route ip in table head (iv), Dihydrochloride Salt): 50% | ILS (iv L1210 leukemia; 9 mg/kg, Days 1 & 5, route ip in table head (iv), Dihydrochloride Salt): 83% | ILS (iv L1210 leukemia; 15 mg/kg, Days 1 & 5, route ip in table head (iv in b213), Dihydrochloride Salt): 133% | ILS (iv L1210 leukemia; 15 mg/kg, Days 1 & 5, route ip in table head (iv in b213), listed as dihydrochloride, Dihydrochloride Salt): 133%

CC[C@@]1(O)C(=O)OCc2c1cc1n(c2=O)Cc2cc3c(CSCCN(C)C)c(O)ccc3nc2-1 [14S, (20 S) 9-N,N-Dimethylaminoethylthiomethyl-10-hydroxycamptothecin Hydrochloride Salt]
IC50 (L1210 leukemia cells): 12 nM | MTD [1]: 42 mg/kg | In Vivo Antitumor Activity ILS (increase in lifespan) (ip L1210 leukemia): 112%

CC[C@@]1(O)C(=O)OCc2c1cc1n(c2=O)Cc2cc3c(CN(C)C)c(O)ccc3nc2-1 [1S (hydrochloride salt)]
ILS (iv L1210 leukemia; 3.2 mg/kg, Days 1 & 5, route ip in table head (iv)): 50% | ILS (iv L1210 leukemia; 5.4 mg/kg, Days 1 & 5, route ip in table head (iv), Monohydrochloride Salt): 92% | ILS (iv L1210 leukemia; 9 mg/kg, Days 1 & 5, route ip in table head (iv), Monohydrochloride Salt): 125% | ILS (iv L1210 leukemia; 15 mg/kg, Days 1 & 5, route ip in table head (iv in b213), Monohydrochloride Salt): 175% | ILS (iv L1210 leukemia; 15 mg/kg, Days 1 & 5, route ip in table head (iv in b213), listed as hydrochloride, Monohydrochloride Salt): 175% | ILS (iv L1210 leukemia; 25 mg/kg, Days 1 & 5, route ip in table head (iv)): toxic

CC[C@@]1(O)C(=O)OCc2c1cc1n(c2=O)Cc2cc3c(CN4CCN(C)CC4)c(O)ccc3nc2-1 [6S]
IC50 (L1210 leukemia cells): 72 nM | MTD [1]: 75 mg/kg | In Vivo Antitumor Activity ILS (increase in lifespan) (ip L1210 leukemia): > 200%

CC[C@@]1(O)C(=O)OCc2c1cc1n(c2=O)Cc2cc3c(CC#N)c(O)ccc3nc2-1 [17S, (20S) 10-Hydroxy-9-cyanomethylcamptothecin]
IC50 (L1210 leukemia cells): 400 nM | MTD [1]: 12 mg/kg | In Vivo Antitumor Activity ILS (increase in lifespan) (ip L1210 leukemia): > 200%

CCOCc1c(O)ccc2nc3c(cc12)Cn1c-3cc2c(c1=O)COC(=O)[C@]2(O)CC [10S, (20 S) 9-Ethoxymethyl-10-hydroxycamptothecin]
IC50 (L1210 leukemia cells): 48 nM | MTD [1]: 25 mg/kg | In Vivo Antitumor Activity ILS (increase in lifespan) (ip L1210 leukemia): 131%

CC[C@@]1(O)C(=O)OCc2c1cc1n(c2=O)Cc2cc3cc(C=O)ccc3nc2-1 [19S, (20S) 10-Formylcamptothecin]
IC50 (L1210 leukemia cells): 62 nM

CC[C@@]1(O)C(=O)OCc2c1cc1n(c2=O)Cc2cc3c(C[N+](C)(C)C)c(O)ccc3nc2-1 [3S, (20 S) 9-Trimethylammoniummethyl-10-hydroxycamptothecin Methanesulfonate Salt]
IC50 (L1210 leukemia cells): 150 nM | MTD [1]: 42 mg/kg | In Vivo Antitumor Activity ILS (increase in lifespan) (ip L1210 leukemia): > 200%

CC[C@@]1(O)C(=O)OCc2c1cc1n(c2=O)Cc2cc3c(C=O)c(O)ccc3nc2-1 [2S, (20 S) 9-Formyl-10-hydroxycamptothecin]
IC50 (L1210 leukemia cells): 260 nM | MTD [1]: 42 mg/kg | In Vivo Antitumor Activity ILS (increase in lifespan) (ip L1210 leukemia): 75%

CC[C@@]1(O)C(=O)OCc2c1cc1n(c2=O)Cc2cc3c(COCCN(C)C)c(O)ccc3nc2-1 [13S, (20 S) 9-N,N-Dimethylaminoethyloxymethyl-10-hydroxycamptothecin Hydrochloride Salt]
MTD [1]: 42 mg/kg | In Vivo Antitumor Activity ILS (increase in lifespan) (ip L1210 leukemia): 188%
